Like-named read-outs stand apart in the source and are kept apart here. Some results are limits rather than exact numbers.

Ten molecules from patent US10358454B2, “Marinopyrrole derivatives and methods of making and using same” (H. LEE MOFFITT CANCER CENTER AND RESEARCH INSTITUTE, INC., priority 2014, dated 2019) can be followed below.

In test [1] the target is Mcl-1/Bim (Homo sapiens, UniProt Q07820). As to the kind of experiment: Mcl-1/Bim ELISA (GST-Mcl-1 binding to biotinylated Bim BH3 peptide). Particulars: for selectivity profile Mcl-1 vs Bcl-xL in words: from Mcl-1/Bim and Bcl-xL/Bim ELISA; for fold loss of potency against Mcl-1/Bim: 1-15 and 1-13 vs 1-10, 1-14 vs 1-11, 1-16 vs 1-15, 1-12 vs 1-9, 1-22, 1-21, 1-20 vs 1-23, 1-37 and N-Me methoxy analogue vs (±)-1; for selectivity for Mcl-1 over Bcl-xL (Mcl-1/Bim over Bcl-xL/Bim): ratio of ELISA IC50 values. As for the experimental part: (§1) ELISAs were performed using a modified version of a previously described procedure (Doi K et al. J. Biol. Chem. 2012, 287, 10224-10235). Briefly, 40 nM of biotinylated Bim BH3 peptide (Biomatik) in SuperBlock blocking buffer (Pierce) was incubated in high-binding capacity streptavidin-coated plates (Pierce) for 2 h. Compounds were diluted in 120 μl of PBS containing 10 nM of GST-Mcl-1 or GST-Bcl-xL in 1.5 mL tubes for 15 min. Wells were washed with wash buffer (PBS containing 0.05% Tween-20) and then 100 μL of the compound/GST-protein mixture was transferred to the wells. The plates were incubated for 2 h, and then the wells were washed with wash buffer. HRP-conjugated anti-GST antibody (Bethyl Laboratories) was diluted 1:2000 in SuperBlock and 100 μL was transferred to each well. The plate was incubated for 1 h, and then the wells were washed with wash buffer followed by PBS. 100 μL of SureBlue TMB Microwell Peroxidase Substrate (VWR) was added to each well and plates were developed for 5-10 min. 100 μL of 1 N HCl was added to each well to stop the reaction and absorbance was read at 450 nm using a μQuant plate reader (Bio-Tek).
(§2) ELISAs were performed using a similar procedure as previously described (Doi K, et al. J. Biol. Chem. 2012, 287, 10224-10235). Briefly, 40 nM of biotinylated Bim BH3 peptide (Biomatik) in SuperBlock blocking buffer (Pierce) was incubated in high-binding capacity streptavidin-coated plates (Pierce) for 2 h. Compounds were diluted in 120 μl of PBS containing 10 nM of GST-Mcl-1 or GST-Bcl-xL in 1.5 mL tubes for 15 min. Wells were washed with wash buffer (PBS containing 0.05% Tween-20) and then 100 μL of the compound/GST-protein mixture was transferred to the wells. The plates were incubated for 2 h, and then wells were washed with wash buffer. HRP-conjugated anti-GST antibody (Bethyl Laboratories) was diluted 1:2000 in SuperBlock and 100 μL was transferred to each well. The plate was incubated for 1 h, and then wells were washed with wash buffer followed by PBS. 100 μL of SureBlue TMB Microwell Peroxidase Substrate (VWR) was added to each well and plates were developed for 5-10 min. 100 μL of 1 N HCl was added to each well to stop the reaction and absorbance was read at 450 nm using μQuant plate reader (Bio-Tek).

In test [2] the target is Bcl-xL/Bim (Homo sapiens, UniProt Q07817). The test is described as follows: Bcl-xL/Bim ELISA (GST-Bcl-xL binding to biotinylated Bim BH3 peptide). As for the experimental part: as §1, §2
For orientation: In an ELISA, binding on a coated surface is turned into a signal by an enzyme label.

Where [3] appears, read: Table 2-B, n ≥ 3 unless specified, read-out: Bcl-xL/Bim IC50 (average ± SEM).
Setting [4] is: Table 3-A structure I, Bcl-xL at 10 nM, n ≥ 3, read-out: Bcl-xL-Bim IC50 (average ± SEM).
The mark [5] stands for this setting: Table 2-B, n ≥ 3, read-out: Mcl-1/Bim IC50 (average ± SEM).
[6] abbreviates: Table 3-A structure I, Mcl-1 at 10 nM, n ≥ 3, read-out: Mcl-1-Bim IC50 (average ± SEM).

Sequence of Bcl-xL/Bim (Q07817 whole entry): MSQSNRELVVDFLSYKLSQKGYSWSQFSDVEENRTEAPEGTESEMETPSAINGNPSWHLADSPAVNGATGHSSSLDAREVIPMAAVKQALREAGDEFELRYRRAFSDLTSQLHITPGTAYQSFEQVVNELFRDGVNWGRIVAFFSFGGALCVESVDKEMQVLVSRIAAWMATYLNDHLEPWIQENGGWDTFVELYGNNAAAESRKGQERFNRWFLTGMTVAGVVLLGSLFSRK
Sequence of Mcl-1/Bim (Q07820 whole entry): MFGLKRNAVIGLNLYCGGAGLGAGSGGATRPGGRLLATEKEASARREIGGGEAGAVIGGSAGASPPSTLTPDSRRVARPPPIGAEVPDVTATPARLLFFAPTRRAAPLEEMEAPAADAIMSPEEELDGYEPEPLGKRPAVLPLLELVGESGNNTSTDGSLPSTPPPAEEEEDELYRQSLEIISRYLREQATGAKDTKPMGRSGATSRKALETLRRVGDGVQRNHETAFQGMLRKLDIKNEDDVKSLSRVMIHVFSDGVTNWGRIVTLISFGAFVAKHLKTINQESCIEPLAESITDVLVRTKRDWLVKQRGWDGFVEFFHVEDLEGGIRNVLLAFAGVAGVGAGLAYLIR

As to `O=C(c1ccc(C(F)(F)F)cc1O)c1[nH]c(Cl)c(Cl)c1-n1c(C(=O)c2ccc(C(F)(F)F)cc2O)cc(Cl)c1Cl` [Compound 1-1], the “selectivity profile Mcl-1 vs Bcl-xL in words” value in test [1] is “dual Mcl-1 and Bcl-XL antagonists”.

As for `Cc1cc(O)c(C(=O)c2[nH]c(Cl)c(Cl)c2-n2c(C(=O)c3cc(Cl)c(C)cc3O)cc(Cl)c2Cl)cc1Cl` [Compound 1-2, (4,4′,5,5′-Tetrachloro-1′H-1,3′-bipyrrole-2,2′-diyl)bis((5-chloro-2-hydroxy-4-methylphenyl)methanone)], the IC50 was determined as 2.5 ± 0.4 µM in test [2] (setting [3]), 2.5 ± 0.4 µM in test [2] (setting [4]), 2.6 ± 0.6 µM in test [1] (setting [5]) and 2.6 ± 0.6 µM in test [1] (setting [6]). For the same molecule, the “selectivity profile Mcl-1 vs Bcl-xL in words” value in test [1] is “dual Mcl-1 and Bcl-XL antagonists”.

`O=C(c1ccc(OS(=O)(=O)C(F)(F)F)cc1O)c1[nH]c(Cl)c(Cl)c1-n1c(C(=O)c2ccc(OS(=O)(=O)C(F)(F)F)cc2O)cc(Cl)c1Cl` [Compound 1-6, (4,4′,5,5′-tetrachloro-1′H-1,3′-bipyrrole-2,2′-diyl)bis(((2-hydroxy-4-hydroxytrifluoromethanesulfonate)-phenyl)methanone)]: the IC50 in test [2] (setting [3]) was determined as 2.5 ± 0.7 µM; in test [2] (setting [4]), 2.1 ± 0.7 µM; in test [1] (setting [5]), 1 ± 0.3 µM; in test [1] (setting [6]), 1 ± 0.3 µM; in test [1] (read-out: IC50 to inhibit the binding of Mcl-1 to Bim) it was 1 µM.

For `O=C(c1ccc(O)cc1O)c1[nH]c(Cl)c(Cl)c1-n1c(C(=O)c2ccc(O)cc2O)cc(Cl)c1Cl` [Compound 1-7], the IC50 in test [2] (setting [3]) and in test [2] (setting [4]) was above 50 µM throughout. In test [1], the “activity against Mcl-1/Bim in words” value was “lost potency”.

Turning to `O=C(c1cc(Cl)c(O)cc1O)c1[nH]c(Cl)c(Cl)c1-n1c(C(=O)c2cc(Cl)c(O)cc2O)cc(Cl)c1Cl` [Compound 1-8], the IC50 in test [2] (setting [3]) and in test [2] (setting [4]) was above 50 µM throughout.

On to `CCOC(=O)CSc1ccc(C(=O)c2[nH]c(Cl)c(Cl)c2-n2c(C(=O)c3ccc(SCC(=O)OCC)cc3O)cc(Cl)c2Cl)c(O)c1` [Compound 1-9], for which the “fold enhancement of potency against Bcl-xL/Bim” value in test [2] (1-9 vs 1-15) is “over 83 fold”. Moreover, the IC50 came to 1.2 ± 0.2 µM in test [2] (setting [4]) and 1.8 ± 0.3 µM in test [1] (setting [6]). The “fold improvement of potency against Mcl-1/Bim” value in test [1] (1-9 vs 1-15) stood at 3.4 fold.

As to `COc1ccc(CS(=O)(=O)c2ccc(C(=O)c3[nH]c(Cl)c(Cl)c3-n3c(C(=O)c4ccc(S(=O)(=O)Cc5ccc(OC)cc5)cc4O)cc(Cl)c3Cl)c(O)c2)cc1` [Compound 1-14], in test [1], the “fold loss of potency against Mcl-1/Bim” value was 25 fold. The IC50 in test [1] (setting [5]) was determined as 17.4 ± 3.1 µM.

Turning to `O=C(O)CS(=O)(=O)c1ccc(C(=O)c2[nH]c(Cl)c(Cl)c2-n2c(C(=O)c3ccc(S(=O)(=O)CC(=O)O)cc3O)cc(Cl)c2Cl)c(O)c1` [Compound 1-16], in test [1], the “activity against Mcl-1/Bim in words” value is reported as “lost potency” and the “fold loss of potency against Mcl-1/Bim” value is listed as 10 fold. In test [1] (setting [6]), the IC50 was found to be 63 ± 5.4 µM.

`CC(C)(C)OC(=O)Cn1cc(-c2cc(O)c(C(=O)c3[nH]c(Cl)c(Cl)c3-n3c(C(=O)c4cc(Cl)c(-c5cn(CC(=O)OC(C)(C)C)nn5)cc4O)cc(Cl)c3Cl)cc2Cl)nn1` [Compound 1-18, Di-tert-butyl 2,2′-(4,4′-((4,4′,5,5′-tetrachloro-1′H-1,3′-bipyrrole-2,2′-dicarbonyl)bis(2-chloro-5-hydroxy-4,1-phenylene))bis(1H-1,2,3-triazole-4,1-diyl))diacetate]: in test [1], the “selectivity for Mcl-1 over Bcl-xL (Mcl-1/Bim over Bcl-xL/Bim)” value is 8.3 fold.

`CC(C)(C)OC(=O)Cn1cc(-c2ccc(C(=O)c3[nH]c(Cl)c(Cl)c3-n3c(C(=O)c4ccc(-c5cn(CC(=O)OC(C)(C)C)nn5)cc4O)cc(Cl)c3Cl)c(O)c2)nn1` [Compound 1-25, Di-tert-butyl 2,2′-(4,4′-((4,4′,5,5′-tetrachloro-1′H-1,3′-bipyrrole-2,2′-dicarbonyl)bis(3-hydroxy-4,1-phenylene))bis(1H-1,2,3-triazole-4,1-diyl))diacetate]: in test [1], the “selectivity for Mcl-1 over Bcl-xL (Mcl-1/Bim over Bcl-xL/Bim)” value was found to be 1.6 fold.
